Consider eight compounds from ChEMBL document CHEMBL1201862, “PubChem BioAssay data set” (2004).

Test systems include OVCAR-4; 786-0; Malme-3M; HOP-92; SNB-75; SK-MEL-28; MCF7; OVCAR-3; OVCAR-5; MDA-MB-231; NCI-H460; LOX IMVI; TK-10; BT-549; OVCAR-8; K562; SW-620; SF-295; RPMI-8226.
What all share (test): inhibition of tumour cell growth, NCI panel, 48 h

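Growth conditions: 96-well plates. Treatment: test compound, 48 hours, 5 concentrations. Analysis: linear interpolation between bracketing concentrations; unreached endpoints set to highest concentration. Abbreviation: GI50, concentration required for 50% inhibition of growth.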 Active and inactive are the calls of the source. No stated cut-off is given here; in the data, active = GI50 up to about 1.1 µM and inactive = higher.

Regarding `CCCCCCCC/C=C\CCCCCCCC(=O)OC[C@]1(CO)CCC(=O)O1`, the GI50 with OVCAR-4, in the experiment on 786-0, with Malme-3M, in the experiment on HOP-92, in the experiment on SNB-75 and in the experiment with SK-MEL-28 was > 100 µM (inactive) throughout. The GI50 with MCF7, in the experiment with OVCAR-3, in the experiment on OVCAR-5, in the experiment on MDA-MB-231, with NCI-H460 and in the experiment with LOX IMVI was > 100 µM (inactive) each time. The GI50 in the experiment on TK-10, in the experiment with BT-549, with OVCAR-8, in the experiment with K562, with SW-620 and in the experiment on SF-295 was > 100 µM (inactive) in each case.

With `CCOC(=O)CC1(O)CCCCC1(Sc1ccc(C)cc1)Sc1ccc(C)cc1` (stereo not drawn), the GI50 is 47.8 µM (inactive) with OVCAR-4; 48.2 µM (inactive) in the experiment with 786-0; 30.5 µM (inactive) with Malme-3M; 29.6 µM (inactive) with HOP-92; 27.5 µM (inactive) in the experiment on SNB-75; 39.2 µM (inactive) in the experiment on SK-MEL-28. For the same compound, the GI50 in the experiment on MCF7 was 31.6 µM (inactive); in the experiment with OVCAR-3 it was 55.5 µM (inactive); with OVCAR-5 it was 44.2 µM (inactive); with MDA-MB-231, 77.4 µM (inactive); in the experiment on NCI-H460 it was 56.4 µM (inactive); in the experiment on LOX IMVI, 36.8 µM (inactive). Moreover, the GI50 with TK-10 is > 100 µM (inactive); with BT-549 it was 83 µM (inactive); in the experiment with OVCAR-8 it was 56.1 µM (inactive); in the experiment on K562, 41.5 µM (inactive); in the experiment with SW-620 it was 62.4 µM (inactive); in the experiment on SF-295, 41 µM (inactive).

Take `Cc1cc(S(=O)(=O)NC2=NCCCN2)c(S)cc1Cl`: the GI50 in the experiment with OVCAR-4 was 16.8 µM (inactive); in the experiment on 786-0, 20.8 µM (inactive); in the experiment with Malme-3M it was 26.4 µM (inactive); in the experiment on SNB-75, 42.3 µM (inactive); in the experiment with SK-MEL-28 it was 56.4 µM (inactive); with MCF7 it was > 10 µM (inactive). Also, the GI50 in the experiment with OVCAR-3 was 31.6 µM (inactive); in the experiment on OVCAR-5 it was 33 µM (inactive); in the experiment on MDA-MB-231, 72.9 µM (inactive); in the experiment with NCI-H460, 39.3 µM (inactive); with LOX IMVI it was 22.1 µM (inactive); in the experiment on TK-10, 26.9 µM (inactive). Moreover, the GI50 in the experiment with BT-549 is 0.721 µM (active); in the experiment with OVCAR-8 it was 24.3 µM (inactive); in the experiment on K562, 22.8 µM (inactive); in the experiment on SW-620, 19.9 µM (inactive).

`CN(c1ccc(Cl)cc1)S(=O)(=O)c1cccc([N+](=O)[O-])c1`: the GI50 with OVCAR-4 was > 100 µM (inactive); in the experiment on 786-0, > 100 µM (inactive); in the experiment on Malme-3M, 69.2 µM (inactive); with SNB-75, 56.5 µM (inactive); in the experiment with SK-MEL-28 it was 95.9 µM (inactive); in the experiment on MCF7 it was 56.1 µM (inactive). Moreover, the GI50 in the experiment with OVCAR-3 is 55.3 µM (inactive); with OVCAR-5, 87.3 µM (inactive); in the experiment on MDA-MB-231 it was 44 µM (inactive); in the experiment with NCI-H460, 42.3 µM (inactive); with LOX IMVI, 41.9 µM (inactive); in the experiment on TK-10, > 100 µM (inactive). In addition, the GI50 was 32.7 µM (inactive) in the experiment with BT-549; > 100 µM (inactive) in the experiment on OVCAR-8; 26.9 µM (inactive) in the experiment on K562; 70.5 µM (inactive) in the experiment with SW-620; > 100 µM (inactive) with SF-295; 39.1 µM (inactive) in the experiment with RPMI-8226.

Take `COC(=O)C1(Cc2ccc3c(c2)CCC3)Cc2ccccc2C1=O` (stereo not drawn): the GI50 was 26.2 µM (inactive) in the experiment on OVCAR-4; 24.5 µM (inactive) in the experiment on 786-0; 17.5 µM (inactive) with Malme-3M; 10.8 µM (inactive) with SNB-75; 7.14 µM (inactive) with SK-MEL-28; 7.06 µM (inactive) in the experiment on MCF7. Also, the GI50 is 14.5 µM (inactive) with OVCAR-3; 26.4 µM (inactive) in the experiment on OVCAR-5; 27.2 µM (inactive) in the experiment on MDA-MB-231; 28.4 µM (inactive) with NCI-H460; 10.5 µM (inactive) in the experiment with LOX IMVI; 12.3 µM (inactive) in the experiment with TK-10. The GI50 was 11.5 µM (inactive) in the experiment on BT-549; 26.1 µM (inactive) in the experiment on OVCAR-8; 3.31 µM (inactive) with K562; 4.49 µM (inactive) in the experiment on SW-620; 9.98 µM (inactive) in the experiment on SF-295; 9.91 µM (inactive) in the experiment with RPMI-8226.

Turning to `C=C1[C@@H]2CCC3[C@]4(C)C(CC[C@@]5(C)C(=O)O[C@H](O)[C@@H]45)[C@H](O)[C@]3(C2)[C@H]1OC1OC(CO)C(O)C(O)C1O` (stereo partly drawn), the GI50 in the experiment with OVCAR-4, in the experiment on 786-0, with Malme-3M, in the experiment with SNB-75, in the experiment on SK-MEL-28 and with MCF7 was > 50 µM (inactive) in each case. Moreover, the GI50 in the experiment with OVCAR-3, in the experiment on OVCAR-5, in the experiment with MDA-MB-231, in the experiment on NCI-H460, with LOX IMVI and in the experiment with TK-10 was > 50 µM (inactive) each time. The GI50 is > 50 µM (inactive) in the experiment with BT-549; > 50 µM (inactive) in the experiment with OVCAR-8; 14.1 µM (inactive) in the experiment on K562; > 50 µM (inactive) with SW-620; > 50 µM (inactive) with SF-295; 8.81 µM (inactive) in the experiment with RPMI-8226.

As for `CCOC(=O)c1cc2c3c(c(C(C)=O)c(O)c2[nH]1)N(C(C)=O)CC3`, the GI50 was > 100 µM (inactive) in the experiment with 786-0; 64.3 µM (inactive) in the experiment on Malme-3M; > 100 µM (inactive) in the experiment on SNB-75; 34.4 µM (inactive) in the experiment on SK-MEL-28; 55.8 µM (inactive) in the experiment with MCF7; 34 µM (inactive) in the experiment on OVCAR-3. Besides, the GI50 with OVCAR-5 is > 100 µM (inactive); in the experiment on MDA-MB-231 it was > 100 µM (inactive); with NCI-H460, > 100 µM (inactive); in the experiment with LOX IMVI, > 100 µM (inactive); with TK-10, 40.6 µM (inactive); with BT-549 it was 52 µM (inactive). Besides, the GI50 in the experiment with OVCAR-8 is 38.1 µM (inactive); in the experiment with K562 it was 26.9 µM (inactive); with SW-620, > 100 µM (inactive); in the experiment on SF-295 it was 52.7 µM (inactive); in the experiment with RPMI-8226, 19.3 µM (inactive).

Take `CSc1nncc2[nH]cnc12`: the GI50 in the experiment with 786-0, in the experiment with SNB-75, in the experiment on SK-MEL-28, with MCF7, in the experiment on OVCAR-3 and in the experiment on OVCAR-5 was > 100 µM (inactive) throughout. In addition, the GI50 with MDA-MB-231, in the experiment on NCI-H460, with TK-10, with BT-549, in the experiment with OVCAR-8 and in the experiment on K562 was > 100 µM (inactive) each time. In addition, the GI50 in the experiment on SW-620, in the experiment with SF-295 and in the experiment on RPMI-8226 was > 100 µM (inactive) throughout.
